Data published in patent US20040198756A1, “Medicaments” (priority 2001, published 2004).
Counter-ions that a name gives are not always drawn.

System: not listed separately
Experiment: MIC of test compounds against various organisms
Type: cell-based
Settings: bound holds for all 11 organisms of the panel; read-out: MIC versus all these organisms
Protocol: The MIC (jig/ml) of test compounds against various organisms was determined:
S. aureus Oxford, S. aureus WCUH29, S. pneumoniae 1629, S. pneumoniae N1387, S. pneumoniae ERY 2, E. faecalis I, E. faecalis 7, H. influenzae Ql, H. influenzae NEMC1, M. catarrhalis 1502, E. coli 7623.

SMILES | MIC
COc1cc(F)c2nccc(NC(=O)C3(O)CCN(CCc4cc5c(cn4)OCCO5)CC3)c2c1 [Example 26, 1-[2-(2,3-Dihydro-[1,4]dioxino[2,3-c]pyridin-7-yl)-ethyl]-4-hydroxy-piperidine-4-carboxylic acid(8-fluoro-6-methoxy-quinolin-4-yl)-amide hydrochloride] | ≤ 4 µg/mL
COc1ccc2nccc(NC(=O)[C@@]3(O)CCN(CCc4ccc5c(c4)NC(=O)CS5)C[C@@H]3O)c2n1 (racemic) [Example 18, (3S/R,4R/S)-3,4-Dihydroxy-1-[2-(3-oxo-3,4-dihydro-2H-benzo[1,4]thiazin-6-yl)-ethyl]-piperidine-4-carboxylic acid (6-methoxy-[1,5]naphthyridin-4-yl)amide dihydrochloride] | ≤ 4 µg/mL
COc1ccc2nccc(NC(=O)C3(C(N)=O)CCN(C[C@@H](O)c4ccc5c(c4)OCCO5)CC3)c2n1 [Example 21, 1-[2-(2,3-Dihydro-benzo[1,4]dioxin-6-yl)-2-R,S-hydroxy-ethyl]-piperidine-4,4-dicarboxylic acid amide (6-methoxy-[1,5]naphthyridin-4-yl)-amide dihydrochloride] | ≤ 16 µg/mL
COc1ccc2nccc(NC(=O)C3(O)CCN(C[C@H](O)c4ccc5c(n4)NC(=O)CS5)CC3)c2n1 (racemic) [Example 22, 4-Hydroxy-1-[2-(RS)-2-hydroxy-2-(3-oxo-3,4-dihydro-2H-pyrido[3,2-b][1,4]thiazin-6-yl)-ethyl]-piperidine-4-carboxylic acid (6-methoxy-[1,5]naphthyridin-4-yl)amide dihydrochloride] | ≤ 4 µg/mL
COc1ccc2nccc(NC(=O)C3(O)CCN(CC(O)c4ccc5c(c4)NC(=O)CS5)CC3)c2n1 (stereo not shown) [Example 9, 4-Hydroxy-1-[2-R,S-hydroxy-2-(3-oxo-3,4-dihydro-2H-benzo[1,4]thiazin-6-yl)-ethyl]-piperidine-4-carboxylic acid (6-methoxy-[1,5]naphthyridin-4-yl)amide oxalate] | ≤ 4 µg/mL
COc1ccc2nccc(N3CCC4(CCN(C[C@H](O)c5ccc6c(c5)NC(=O)CO6)CC4)C3=O)c2n1 [Example 7, 6-{1-R,S-Hydroxy-2-[2-(6-methoxy-[1,5]naphthyridin-4-yl)-1-oxo-2,8-diaza-spiro[4.5]dec-8-yl]-ethyl)4H-benzo[1,4]oxazin-3-one oxalate] | ≤ 16 µg/mL
COc1ccc2nccc(NC(=O)C3(N)CCN(CC(O)c4ccc5c(c4)NC(=O)CS5)CC3)c2n1 (stereo not shown) [Example 12, 4-Amino-1-[2-R,S-hydroxy-2-(3-oxo-3,4-dihydro-2H-benzo[1,4]thiazin-6-yl)-ethyl]-piperidine-4-carboxylic acid (6-methoxy-[1,5]naphthyridinyl)-amide dihydrochloride] | ≤ 4 µg/mL
COc1ccc2nccc(NC(=O)C3(N)CCN(CC(O)c4cc5c(cc4F)SCC(=O)N5)CC3)c2n1 (stereo not shown) [Example 11, 4-Amino-1-[2-(7-fluoro-3-oxo-3,4-dihydro-2H-benzo[1,4]thiazin-6-yl)-2-R,S-hydroxy-ethyl]-piperidine-4-carboxylic acid (6-methoxy-[1,5]naphthyridin-4-yl)-amide dioxalate] | ≤ 16 µg/mL
COc1ccc2nccc(NC(=O)C3(OC)CCN(CC(O)c4ccc5c(c4)NC(=O)CS5)CC3)c2n1 (stereo not shown) [Example 16, 1-[2-R,S-Hydroxy-2-(3-oxo-3,4-dihydro-2H-benzo[1,4]thiazin-6-yl)-ethyl]-4-methoxy-piperidine-4-carboxylic acid (6-methoxy-[1,5]naphthyridin-4-yl)-amide dihydrochloride] | ≤ 4 µg/mL

Same assay, conditions: bound holds only for some of the 11 organisms of the panel; read-out: MIC versus some of these organisms

SMILES | MIC
COc1ccc2nccc(NC(=O)C3(C(=O)O)CCN(CCc4ccc5c(c4)NC(=O)CS5)CC3)c2n1 [Example 6, 4-(6-Methoxy-[1,5]naphthyridin-4-ylcarbamoyl)-1-[2-(3-oxo-3,4-dihydro-2H-benzo[1,4]thiazin-6-yl)-ethyl]-piperidine-4-carboxylic acid] | ≤ 64 µg/mL

Same assay, conditions: read-out: MIC versus all these organisms

SMILES | MIC
COc1ccc2nccc(NC(=O)C3(N)CCN(CCc4ccc5c(c4)NC(=O)CS5)CC3)c2n1 [Example 2, 4-Amino-1-[2-(3-oxo-3,4-dihydro-2H-benzo[1,4]thiazin-6-yl)-ethyl]-piperidine-4-carboxylic acid (6-methoxy-[1,5]naphthyridin-4-yl)amide dioxalate] | ≤ 4 µg/mL
COc1ccc2nccc(NC(=O)C3(C#N)CCN(CCc4ccc5c(c4)NC(=O)CS5)CC3)c2n1.Cl.Cl [Example 20, 4-Cyano-1-[2-(3-oxo-3,4-dihydro-2H-benzo[1,4]thiazin-6-yl)-ethyl]-piperidine-4-carboxylic acid (6-methoxy-[1,5]naphthyridin-4-yl)-amide dihydrochloride] | ≤ 64 µg/mL
COc1ccc2nccc(NC(=O)C3(O)CCN(CC(O)c4ccc5c(c4)OCCO5)CC3)c2n1 (racemic) [Example 13, 1-[2-(2,3-Dihydro-benzo[1,4]dioxin-6-yl)-2-(R,S)-hydroxy-ethyl]-4-hydroxy-piperidine-4-carboxylic acid (6-methoxy-[1,5]naphthyridin-4-yl)-amide dihydrochloride] | ≤ 16 µg/mL
COc1ccc2nccc(NC(=O)C3(O)CCN(CCc4cc5c(nn4)SCC(=O)N5)CC3)c2n1 [Example 14, 4-Hydroxy-1-[2-(6-oxo-6,7-dihydro-5H-pyridazino[3,4-b][1,4]thiazin-3-yl)-ethyl]-piperidine-4-carboxylic acid (6-methoxy-[1,5]naphthyridin-4-yl)-amide dihydrochloride] | ≤ 4 µg/mL
COc1ccc2nccc(NC(=O)C3(O)CCN(CCc4ccc5c(c4)OCO5)CC3)c2n1 [Example 3, 1-(2-Benzo[1,3]dioxol-5-yl-ethyl)-4-hydroxy-piperidine-4-carboxylic acid (6-methoxy-[1,5]naphthyridin-4yl)amide oxalate] | ≤ 16 µg/mL

System: S. aureus WCUH29, S. pneumoniae 1629, H. influenzae ATCC 51907, M. catarrhalis Ravisio
Experiment: MIC of further test compounds against an alternative selection of organisms
Type: cell-based
Settings: read-out: MIC values versus some of these organisms
Protocol: The MIC (μg/ml) of further test compounds against an alternative selection of organisms was determined:
S. aureus WCUH29, S. pneumoniae 1629, H. influenzae ATCC 51907, M. catarrhalis Ravisio.

SMILES | MIC
COc1ccc2nccc(NC(=O)C3(C(F)(F)F)CCN(CCc4cc5c(nn4)SCC(=O)N5)CC3)c2n1 [Example 24, 1-[2-(6-Oxo-6,7-dihydro-5H-8-thia-1,2,5-triazanaphthalen-3-yl)ethyl]-4-trifluoromethylpiperidine-4-carboxylic acid (6-methoxy-[1,5]naphthyridin-4-yl) amide dihydrochloride] | ≤ 16 µg/mL
